Where “and” joins values, the source holds several entries; their conditions need not be identical. Identical values can stand only once.
Assays:
Assay type in all cases: cell-based
HDMB03 (HDMBO3) cells = assay: ERCC spike-in RNAseq gene expression after 6 h treatment; details: HDMBO3, replicate values, Supplementary Fig 6c
Procedure: (§1) First, we examined global changes in gene expression induced by drug treatment.
(§2) External RNA consortium control RNAs (ERCC, Ambion) were added directly to Trizol, based on cell number prior to RNA extraction. RNA samples were treated with DNAse I (Invitrogen) prior to recovery. Samples were obtained in biological triplicate. Total RNA was subjected to ribosomal RNA depletion prior to library preparation using the Truseq Stranded Total Library Prep Kit (Illumina) and sequencing on a Nextseq-500 (paired end, 100 bp reads).
(§3) Sequences were aligned using HISAT2 (version 2.1.0)[77] in paired-end mode with default parameters to build version hg19 of the human genome to which the sequences of the ERCC synthetic spike-in RNAs (http://tools.invitrogen.com/downloads/ERCC92.fa) had been added. Per-gene expression was quantified using htseq-count[78] with parameters “-i gene_id --stranded=reverse -f bam -m,” and version 87 of the canonical GRCh37 gene list from RefSeq to which ERCC coordinates were added. TPM-normalized (Transcripts Per Million) expression was then computed for each gene and synthetic ERCC spike-in RNA. Per-gene exon length was calculated across all exons of all isoforms of each gene. The standard TPM-normalization strategy is: normterm = sum of (read count * read length/exon length) across all genes. TPM = read count * read length/exon length * 1e6/normterm. We used a loess regression to normalize the TPM values across all samples of the batch, using only the spike-in values to fit the loess by the “affy” R package[79] with function loess.normalize. This function allowed us to perform loess regression on a matrix of TPM values and used the ERCC subset of data for fitting the loess. The output from this was a matrix of normalized TPM values controlled by ERCC spike-ins.
(§4) We used the elbow method[81] to determine the k value in k-means cluster analysis.
(§5) Dependency analysis was performed using the 22Q4 release of the DepMap dataset, comprising seven medulloblastoma cell lines: UW228, DAOY, ONS76, D458, D425, D283MED, D341MED. Dependency was defined as a Chronos gene effect score of <−0.5, and gene lists were filtered for dependency in >2/7 medulloblastoma cell lines. […] PANTHER was used to define gene annotations, with unknown annotations assigned using individual assessment using the Genecards.org resource.

MB002 cells = assay: as above; details: MB002, replicate values, Supplementary Fig 6c
Procedure: as §1, §2, §3, §4, §5

[1] = tested on: HDMB03 (HDMBO3) group 3 medulloblastoma cells; assay: CellTiter-Glo dose-response growth assay; details: day 3; read-out: d3 IC50 HDMBO3
Procedure: (§6) CellTiter-Glo assay was performed as per the manufacturer’s instructions, at the noted timepoint after compound treatment or plating. For Kelly, TE617T, RhJT, NCIH2122, NCIH650 and 143B, 500 cells were plated in normal growth media per well in a 384-well plate (Corning). HDMB03 and MB002 cells were plated in growth media at 500 cells/well in a 384-well plate. […] Cells were incubated for the noted timepoints prior to performing CellTiter-Glo assay as per the manufacturer’s instructions, and reading plates on an Envision 2104 microplate reader.

[2] = tested on: MB002 group 3 medulloblastoma cells; assay: CellTiter-Glo dose-response growth assay; details: day 3; read-out: d3 IC50 MB002
Procedure: as §6

For `Cc1sc2c(c1C)C(c1ccc(Cl)cc1)=N[C@@H](CC(=O)OC(C)(C)C)c1nnc(C)n1-2` [JQ1], the “Normalized MYC expression” value (HDMB03 (HDMBO3) cells) was 0.9657 and 0.7621 and 0.679, the “Normalized MYC expression” value (MB002 cells) was 0.8713 and 1.005 and 0.8421 and the IC50 [1] was 100 nM. It also gave an IC50 [2] of 107 nM.

From article PMC11045757, “Group 3 medulloblastoma transcriptional networks collapse under domain specific EP300/CBP inhibition” (Nature Communications, 2024)
